Measurements: PubChem BioAssay (NCI)
Values joined by “and” are separate entries in the source; they are usually repeats but may differ in a detail not shown here. Equal entries are not always repeated.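 96-well plates; 48 h exposure; 5 concentrations. Endpoints by linear interpolation between flanking doses. Not reached: highest tested concentration assigned. The concentration for full growth arrest is given as TGI.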

What was measured:
Test in all cases: DTP human tumour cell line panel, 48 h
SR leukemia = system: SR leukemia
SF-295 CNS = system: SF-295 CNS
HCT-116 colon = system: HCT-116 colon
SK-MEL-2 melanoma = system: SK-MEL-2 melanoma
ACHN renal = system: ACHN renal
U251 CNS = system: U251 CNS
A498 renal = system: A498 renal
SF-268 CNS = system: SF-268 CNS
K-562 leukemia = system: K-562 leukemia
MDA-N = system: MDA-N

Cc1c(C(=O)CSc2nc3ccccc3c(=O)n2-c2ccccc2)c(=O)n(-c2ccccc2)n1C
TGI (SR leukemia): > 100 µM | TGI (SF-295 CNS): 66.2 µM | TGI (HCT-116 colon): > 100 µM | TGI (SK-MEL-2 melanoma): > 100 µM | TGI (ACHN renal): > 100 µM | TGI (U251 CNS): 69.2 µM | TGI (A498 renal): > 100 µM | TGI (SF-268 CNS): > 100 µM

CC(O)C1CC1(CO)CNc1cc(Cl)nc(N)n1 (centres undefined)
TGI (K-562 leukemia): > 100 µM | TGI (SR leukemia): > 100 µM | TGI (MDA-N): > 100 µM | TGI (SF-295 CNS): > 100 µM | TGI (HCT-116 colon): > 100 µM | TGI (SK-MEL-2 melanoma): > 100 µM | TGI (ACHN renal): > 100 µM | TGI (U251 CNS): > 100 µM | TGI (SF-268 CNS): > 100 µM

Brc1cccc(Nc2nc(-c3cccs3)nc3ccc(Br)cc23)c1
TGI (K-562 leukemia): > 100 µM | TGI (SR leukemia): > 100 µM | TGI (SF-295 CNS): 45.1 µM | TGI (HCT-116 colon): > 100 µM | TGI (SK-MEL-2 melanoma): 94.5 µM | TGI (ACHN renal): 91 µM | TGI (U251 CNS): > 100 µM | TGI (A498 renal): > 100 µM | TGI (SF-268 CNS): > 100 µM

CC(C(=O)n1nnc2ccccc21)N(c1ccccc1)c1ccccc1 (centres undefined)
TGI (K-562 leukemia): > 100 µM | TGI (SR leukemia): > 100 µM | TGI (SF-295 CNS): > 100 µM | TGI (HCT-116 colon): > 100 µM | TGI (SK-MEL-2 melanoma): > 100 µM | TGI (ACHN renal): > 100 µM | TGI (U251 CNS): > 100 µM | TGI (SF-268 CNS): > 100 µM

Cc1cc2[nH]c3[nH]c(=O)[nH]c(=O)c3c2cc1C
TGI (SR leukemia): > 100 µM | TGI (MDA-N): > 100 µM | TGI (SF-295 CNS): > 100 µM | TGI (HCT-116 colon): > 100 µM | TGI (SK-MEL-2 melanoma): > 100 µM | TGI (ACHN renal): > 100 µM | TGI (A498 renal): > 100 µM | TGI (SF-268 CNS): > 100 µM

CN(C)C(=S)S
TGI (K-562 leukemia): > 100 µM | TGI (SF-295 CNS): > 100 µM | TGI (HCT-116 colon): > 59.9 µM | TGI (SK-MEL-2 melanoma): > 93.8 µM | TGI (ACHN renal): > 100 µM | TGI (U251 CNS): > 100 µM | TGI (A498 renal): > 100 µM | TGI (SF-268 CNS): > 100 µM

CCOC(=O)/C=C(\C)c1ccc(C)cc1C
TGI (K-562 leukemia): > 100 µM | TGI (SR leukemia): 37.3 µM | TGI (SF-295 CNS): > 100 µM | TGI (HCT-116 colon): > 100 µM | TGI (SK-MEL-2 melanoma): > 100 µM | TGI (ACHN renal): > 100 µM | TGI (U251 CNS): > 100 µM | TGI (A498 renal): > 100 µM | TGI (SF-268 CNS): > 100 µM

O=C(NCCN1CCOCC1)c1ccc2cc(C(=O)N3CC(CCl)c4ccc([N+](=O)[O-])cc43)[nH]c2c1 (centres undefined)
TGI (K-562 leukemia): > 100 µM | TGI (SF-295 CNS): 13.3 µM | TGI (HCT-116 colon): > 100 µM | TGI (SK-MEL-2 melanoma): 32.7 µM | TGI (ACHN renal): 45.2 µM | TGI (U251 CNS): 57.8 µM | TGI (A498 renal): 20 µM | TGI (SF-268 CNS): 31.3 µM

COc1cc(NS(C)(=O)=O)ccc1N1Cc2cnc3ccc4[nH]c(C)cc1c4c23
TGI (K-562 leukemia): > 100 µM | TGI (MDA-N): 47.7 µM | TGI (SF-295 CNS): > 100 µM | TGI (HCT-116 colon): > 100 µM | TGI (SK-MEL-2 melanoma): > 100 µM | TGI (ACHN renal): > 100 µM | TGI (U251 CNS): > 100 µM | TGI (A498 renal): > 100 µM | TGI (SF-268 CNS): 63.4 µM

Cc1c2c(n(CCc3ccc(Cl)cc3)c1C)NN=C(C#N)S2(=O)=O
TGI (K-562 leukemia): > 100 µM | TGI (SR leukemia): > 100 µM | TGI (MDA-N): > 100 µM | TGI (HCT-116 colon): > 100 µM | TGI (SK-MEL-2 melanoma): > 100 µM | TGI (ACHN renal): > 100 µM | TGI (U251 CNS): > 100 µM | TGI (SF-268 CNS): > 100 µM

C=CCn1c(=O)ccn(COCCO)c1=O
TGI (K-562 leukemia): > 100 µM | TGI (SR leukemia): > 100 µM | TGI (MDA-N): > 100 µM | TGI (SK-MEL-2 melanoma): > 100 µM | TGI (ACHN renal): > 100 µM | TGI (U251 CNS): > 100 µM | TGI (A498 renal): > 100 µM | TGI (SF-268 CNS): > 100 µM

O=C(NCCCN(CCCCN(CCCNC(=O)C(F)(F)F)Cc1ccccc1)Cc1ccccc1)C(F)(F)F
TGI (K-562 leukemia): 30.6 µM | TGI (MDA-N): 29.1 µM | TGI (SF-295 CNS): 30 µM | TGI (HCT-116 colon): 23.6 µM | TGI (ACHN renal): 30.1 µM | TGI (A498 renal): 72.2 µM | TGI (SF-268 CNS): 25 µM

C=CCNC(=S)/N=C/c1c(O)c2ccccc2oc1=O
TGI (K-562 leukemia): > 100 µM | TGI (SF-295 CNS): > 100 µM | TGI (HCT-116 colon): > 100 µM | TGI (SK-MEL-2 melanoma): > 100 µM | TGI (ACHN renal): > 100 µM | TGI (U251 CNS): > 100 µM | TGI (A498 renal): > 100 µM | TGI (SF-268 CNS): > 100 µM

COc1cc(C2SCC(=O)N2c2ccc(NC(=O)c3ccc(N4C(=O)CSC4c4cc(OC)c(OC)c(OC)c4)cc3)cc2)cc(OC)c1OC (centres undefined)
TGI (K-562 leukemia): > 100 µM | TGI (MDA-N): 64 µM | TGI (SF-295 CNS): > 100 µM | TGI (HCT-116 colon): > 100 µM | TGI (SK-MEL-2 melanoma): > 100 µM | TGI (ACHN renal): > 100 µM | TGI (U251 CNS): > 100 µM | TGI (SF-268 CNS): > 100 µM

CC(C)COP(=O)(OCC(C)C)C(NS(=O)(=O)c1ccccc1)(C(F)(F)F)C(F)(F)F
TGI (K-562 leukemia): > 100 µM | TGI (SR leukemia): 38.1 µM | TGI (MDA-N): 20.6 µM | TGI (SF-295 CNS): 37 µM | TGI (HCT-116 colon): 21.7 µM | TGI (SK-MEL-2 melanoma): 14.3 µM | TGI (ACHN renal): 10.2 µM | TGI (U251 CNS): 17.3 µM | TGI (SF-268 CNS): 34.7 µM

CN(C)c1nc(=NCc2ccccc2)ss1
TGI (K-562 leukemia): > 10 µM | TGI (SR leukemia): 6.37 µM | TGI (MDA-N): > 10 µM | TGI (SF-295 CNS): > 10 µM | TGI (HCT-116 colon): > 10 µM | TGI (ACHN renal): > 10 µM | TGI (U251 CNS): > 10 µM | TGI (A498 renal): > 10 µM | TGI (SF-268 CNS): > 10 µM

O=C1CN2C(c3ccccc3)=NN(c3ccc([N+](=O)[O-])cc3)C2(c2ccccc2)c2cc(Cl)ccc2N1CC1CC1 (centres undefined)
TGI (K-562 leukemia): > 100 µM | TGI (SR leukemia): > 100 µM | TGI (SF-295 CNS): > 100 µM | TGI (HCT-116 colon): > 100 µM | TGI (ACHN renal): > 100 µM | TGI (U251 CNS): > 100 µM | TGI (A498 renal): > 100 µM | TGI (SF-268 CNS): > 100 µM

C1=CC2=CC=CC3c4nc5ccc6ccccc6c5nc4C(=C1)C23 (centres undefined)
TGI (K-562 leukemia): > 100 µM | TGI (SR leukemia): > 100 µM | TGI (MDA-N): > 100 µM | TGI (SF-295 CNS): > 100 µM | TGI (HCT-116 colon): > 100 µM | TGI (SK-MEL-2 melanoma): > 100 µM | TGI (ACHN renal): > 100 µM | TGI (U251 CNS): > 100 µM | TGI (SF-268 CNS): > 100 µM

O=[N+]([O-])/C(C(Cl)=C(Cl)Cl)=C(\Nc1cccc2cccnc12)SCc1ccccc1
TGI (K-562 leukemia): 56.9 µM | TGI (MDA-N): > 100 µM | TGI (SF-295 CNS): 37.4 µM | TGI (HCT-116 colon): 36.1 µM | TGI (SK-MEL-2 melanoma): 41 µM | TGI (ACHN renal): 64.4 µM | TGI (U251 CNS): 33.2 µM | TGI (A498 renal): 50.6 µM | TGI (SF-268 CNS): 42.3 µM

C/C=C/C=C/c1nc(C#N)c(N)o1
TGI (K-562 leukemia): > 100 µM | TGI (SR leukemia): > 100 µM | TGI (MDA-N): > 100 µM | TGI (SF-295 CNS): > 100 µM | TGI (HCT-116 colon): > 100 µM | TGI (SK-MEL-2 melanoma): > 100 µM | TGI (ACHN renal): > 100 µM | TGI (U251 CNS): > 100 µM | TGI (SF-268 CNS): > 100 µM

CC(=O)N/N=C1\NC(=O)C[C@H]2[C@@H]3CC=C4C[C@@H](OC(C)=O)CC[C@]4(C)[C@H]3CC[C@]12C
TGI (K-562 leukemia): > 100 µM | TGI (MDA-N): > 100 µM | TGI (SF-295 CNS): 45.1 µM | TGI (HCT-116 colon): > 100 µM | TGI (SK-MEL-2 melanoma): > 100 µM | TGI (ACHN renal): 52.7 µM | TGI (U251 CNS): 28.7 µM | TGI (A498 renal): 35.2 µM | TGI (SF-268 CNS): > 100 µM

O=c1ccc2cc3ccc4cccc5ccc(c2o1)c3c45
TGI (K-562 leukemia): > 100 µM | TGI (SF-295 CNS): > 100 µM | TGI (SK-MEL-2 melanoma): > 100 µM | TGI (ACHN renal): 34 µM | TGI (U251 CNS): 31.1 µM | TGI (A498 renal): 44.9 µM | TGI (SF-268 CNS): > 100 µM

CC[C@H]1CN2CCc3cc(OC)c(OC)cc3[C@@H]2C[C@@H]1C[C@H]1NCCc2cc(OC)c(OC)cc21
TGI (K-562 leukemia): 0.0932 µM | TGI (MDA-N): 0.0589 µM | TGI (HCT-116 colon): 0.0805 µM and 0.153 µM | TGI (SK-MEL-2 melanoma): 0.111 µM and 0.17 µM | TGI (ACHN renal): 0.0974 µM and 0.428 µM | TGI (A498 renal): 0.176 µM

COc1ccc2cc3c4cc5c(cc4cc[n+]3cc2c1OC)OCO5
TGI (K-562 leukemia): > 100 µM | TGI (MDA-N): 28.5 µM | TGI (SF-295 CNS): > 93 µM | TGI (HCT-116 colon): > 100 µM | TGI (SK-MEL-2 melanoma): > 57.8 µM | TGI (ACHN renal): > 100 µM | TGI (U251 CNS): 15.3 µM | TGI (A498 renal): > 100 µM | TGI (SF-268 CNS): 18.5 µM
